From article PMC7898822, “RNA‐PROTACs: Degraders of RNA‐Binding Proteins” (Angewandte Chemie (International Ed. in English), 2020)
Oligonucleotides are written 5' to 3', each unit as a sugar letter and its base; * is a phosphorothioate linkage, no mark a phosphodiester; rarer units and linkages stand in square brackets, end groups in braces. Plain capitals give the bases only. {FAM} = fluorescein (FAM) label; r = 2'-OH (RNA)

How the values were obtained:
[1] = target: T1, Lin28_ZKD (Homo sapiens, UniProt Q9H9Z2); assay: Fluorescence polarization titration, Lin28_ZKD binding to preE-let-7f-1-FAM; conditions: Lin28_ZKD titrated into FAM-labeled preE-let-7, 10 nM; 10 mM HEPES, 150 mM NaCl, pH 7.4; read-out: K D of the Lin28_ZKD/let7FAM interaction
T1 construct: construct encoding amino acids 124–186 of human Lin28; His6; made in house; host or cells: Escherichia coli BL21 (DE3) Codon+ (RIL)
T1 sequence (Q9H9Z2 124-186): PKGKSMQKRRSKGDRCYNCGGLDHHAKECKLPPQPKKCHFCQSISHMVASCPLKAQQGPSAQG
Method: Fluorescence Polarization Assay. Fluorescence polarization titration assay was carried out by titrating Lin28_ZKD protein into FAM-labeled PreE-let-7 at a 10 nM final concentration and buffer (10 mM HEPES, 150 mM NaCl, 10 µM ZiCl2, pH 7,4). The assay plate was briefly vortexed, and air bubbles were removed by spinning at 1000 rpm. The fluorescence anisotropy was measured on a Spectra Max Paradigm multimode plate reader (Molecular Devices). […]
(§1) Fluorescence polarization readings were transferred into Prism 7.0 (GraphPad). All fluorescence polarization assays were repeated at least three times and the anisotropy values fitted using GraphPad Prism software using 1:1 binding/inhibition model. […]

[2] = system: Lin28A; assay: Western blot of Lin28A in NT2/D1 cells; format: cell-based, human; conditions: 2 μM, three independent experiments
From the text: Finally, we tested RNA‐PROTACs for their ability to degrade their target in two cell lines: the embryonic NT2/D1 cell line, which expresses high levels of Lin28A, ^[13a] and K562 cells which express Lin28A and Lin28B. […] Finally, we co‐treated K562 cells with ORN3P1 and MG132, a reversible inhibitor of the 26S proteasome. […] In order to explore the versatility of RNA‐PROTACs with non peptide‐based VHL ligands, we conjugated small‐molecule VH032 ^[38] to ORN3 via an amino linker to yield ORN3VH032 (Figure S1). […]

[3] = target: T1, Lin28_ZKD; assay: Fluorescence polarization competition assay (displacement of let7FAM from Lin28_ZKD); format: binding; conditions: competition FP, conjugate vs parent
Method: Fluorescence Polarization Assay. Fluorescence polarization titration assay was carried out by titrating Lin28_ZKD protein into FAM-labeled PreE-let-7 at a 10 nM final concentration and buffer (10 mM HEPES, 150 mM NaCl, 10 µM ZiCl2, pH 7,4). The assay plate was briefly vortexed, and air bubbles were removed by spinning at 1000 rpm. The fluorescence anisotropy was measured on a Spectra Max Paradigm multimode plate reader (Molecular Devices). The fluorescence polarization competition […]
preE-let-7. The concentration of Lin28_ ZKD is kept at 40 nM, a value in the range of the dissociation constant of Lin28_ZKD and preE-let-7 determined through fluorescence polarization titration assay, whereas preE-let-7 concentration is kept constant at 10 nM. FP competitive binding assays were performed on 384-well plates (#3575, Corning) with a total well volume of 10 µL.
as §1

[4] = system: QKI (pDEST-Myc-QKI); assay: Ubiquitination assay of Myc-QKI (negative control RBP) in 22Rv1 cells; format: cell-based; conditions: pDEST-Myc-QKI and HA-Ub, 500 nM, 48 h
Method: (§2) Next, we investigated the ability of ORN3P1 and ORN7P1 to mediate ubiquitination of Lin28 in cells, using a previously described protocol. ^[32] Cells from the prostate cancer cell line 22RV1, which express very low levels of Lin28, were co‐transfected with two plasmids expressing pCMV‐myc‐Lin28A and HA‐tagged polyubiquitin (HA‐Ub).
(§3) After 48 h of incubation with ORN3P1 and ORN7P1, the tagged Lin28 (and the control QKI) was immunoprecipitated using an anti‐Myc antibody. The isolated protein was then analyzed by western blotting using the anti‐HA and anti‐c‐Myc antibodies. Consistent with other previously described PROTAC reagents,[ ^32 , ^33 ]
(§4) The protein extracts (12-17 µg) were run on a 4-20% SDS-PAGE and transferred on a nitrocellulose blotting membrane 0.22 µm (GE Healthcare) using the Trans-Blot transfer device (Biorad). Membranes were blocked with 5% milk and incubated with the primary antibody overnight at 4 °C. Membranes were washed with 0.05% PBS-T and reacted with the secondary antibody for 1 h in 5% milk. The proteins were detected using the anti-lin28a antibody (Cell Signaling technology, D9F5), anti-lin28b antibody (Cell Signaling technology, 4196S), anti-rbfox1 (NovusBio, NBP2-13169SS), at 1:1000 and anti-hrnp c antibody […]
(§5) (Abcam, AB133607) at 1:10000 dilutions. […]
(§6) on a ChemiDoc MP imager (Biorad). The intensity of the signal was quantified using the ImageJ-Fiji software. […]

[5] = system: Lin28A; assay: Pull-down RNA ELISA, gymnosis, anti-Lin28A; format: cell-based, human; conditions: 3'-biotin conjugates, K562 cells, 2 µM, 24 h; streptavidin plate; vs mock or FUS antibody
From the text: Humans express two paralogs of the protein, LIN28 (Lin28A) and LIN28B (Lin28B), that play key roles in development, metabolism, and pluripotency. ^[34] Lin28 proteins are abundantly expressed during embryonic development, as well as in several tumors and tumor‐derived cell lines. ^[35] […] In order to confirm that RNA‐PROTACs bind to endogenous Lin28 in cells, we performed a pull‐down RNA ELISA assay that we have previously described. ^[36] Thus, we conjugated a biotin group to the 3′ ends of ORN3P1 and ORN7P1 and added these reagents separately on to myelogenous leukemia K562 cells. We incubated lysates from treated cells on streptavidin‐coated plates so as to capture the RNA‐PROTACs present in the cell lysates. We then assayed for the presence of Lin28A in the plates using an anti‐Lin28A antibody and a negative control anti‐FUS antibody. […]
The protein extracts (12-17 µg) were run on a 4-20% SDS-PAGE and transferred on a nitrocellulose blotting membrane 0.22 µm (GE Healthcare) using the Trans-Blot transfer device (Biorad). […] The proteins were detected using the anti-lin28a antibody (Cell Signaling technology, D9F5), anti-lin28b antibody (Cell Signaling technology, 4196S), anti-rbfox1 (NovusBio, NBP2-13169SS), at 1:1000 and anti-hrnp c antibody […]
as §6

[6] = system: myc-Lin28A; assay: Ubiquitination assay of myc-Lin28A in 22Rv1 cells; format: cell-based; conditions: HA-Ub co-transfected, 500 nM, 48 h, anti-HA western blot after cMyc IP
Method: as §2, §3, §4, §5, §6

| Compound | Kd [1] | reduction of Lin28A [2] | competition for Lin28_ZKD relative to parent unconjugated oligonucleotides [3] | ubiquitination of QKI [4] | Lin28A pull-down signal [5] | ubiquitination of myc-Lin28A [6] |
| --- | --- | --- | --- | --- | --- | --- |
| Let7FAM: FAM_GGGGUAGUGAUUU UACCCUGUUCAGGAGAU, PO-RNA; fluorescent probe ({FAM}-rGrGrGrGrUrArGrUrGrArUrUrUrUrArCrCrCrUrGrUrUrCrArGrGrArGrArU) | 27 nM |  |  |  |  |  |
| CC[C@H](C)[C@H](NC(=O)[C@H](Cc1ccc(O)cc1)NC(=O)[C@@H]1C[C@@H](O)CN1C(=O)[C@H](C)NC(=O)[C@H](CC(C)C)NC(=O)CCCCCNC(=O)[C@@H](N)CSC1CC(=O)N(CCOP(=O)(S)OC[C@H]2O[C@@H](n3cnc4c(N)ncnc43)[C@H](OCCOC)[C@@H]2OP(=O)(S)OC[C@H]2O[C@@H](n3cnc4c(=O)[nH]c(N)nc43)[C@H](OCCOC)[C@@H]2OP(=O)(S)OC[C@H]2O[C@@H](n3cnc4c(=O)[nH]c(N)nc43)[C@H](OCCOC)[C@@H]2OP(=O)(S)OC[C@H]2O[C@@H](n3cnc4c(N)ncnc43)[C@H](OCCOC)[C@@H]2OP(=O)(S)OC[C@H]2O[C@@H](n3cnc4c(=O)[nH]c(N)nc43)[C@H](OCCOC)[C@@H]2OP(=O)(S)OC[C@H]2O[C@@H](n3cnc4c(N)ncnc43)[C@H](OCCOC)[C@@H]2OP(=O)(S)OC[C@H]2O[C@@H](n3cc(C)c(=O)[nH]c3=O)[C@H](OCCOC)[C@@H]2OP(=O)(S)OC[C@H]2O[C@@H](n3cnc4c(N)ncnc43)[C@H](OCCOC)[C@@H]2OP(=O)(S)OC[C@H]2O[C@@H](n3cnc4c(N)ncnc43)[C@H](OCCOC)[C@@H]2OP(=O)(S)OC[C@H]2O[C@@H](n3cc(C)c(N)nc3=O)[C@H](OCCOC)[C@@H]2OP(=O)(S)OC[C@H]2O[C@@H](n3cc(C)c(=O)[nH]c3=O)[C@H](OCCOC)[C@@H]2O)C1=O)C(=O)O (stereo partly drawn) [ORN7P1] |  | ~50% | competed slightly more strongly | showed no such effects | strong signal for Lin28A protein | showed a smear on the gel towards higher molecular weight |
